Experimental data as given in ChEMBL document CHEMBL1649204, “Evaluation of analogs of reutericyclin as prospective candidates for treatment of staphylococcal skin infections” (Antimicrob Agents Chemother, 2009).
≈ marks a conversion by molar mass, not a printed value. Calls of active or inactive are those of the source. No cut-off for these calls is given here.

Columns and labels:
[1] = system: Staphylococcus epidermidis; experiment: Antimicrobial activity against Staphylococcus epidermidis RP62A by microdilution method; type: functional
Staphylococcus aureus [2] = experiment: Antimicrobial activity against methicillin-susceptible Staphylococcus aureus ATCC 29213 by microdilution method; type: functional
Staphylococcus aureus [3] = experiment: Antimicrobial activity against methicillin-resistant Staphylococcus aureus ATCC 33591 by microdilution method; type: functional
Staphylococcus aureus [4] = experiment: Antimicrobial activity against methicillin-susceptible Staphylococcus aureus ATCC 29213 grown as biofilms by microdilution method; type: functional
Staphylococcus aureus [5] = experiment: Antimicrobial activity against methicillin-resistant Staphylococcus aureus ATCC 33591 grown as biofilms by microdilution method; type: functional
[6] = system: Staphylococcus epidermidis; experiment: Antimicrobial activity against Staphylococcus epidermidis RP62A grown as biofilms by microdilution method; type: functional
Staphylococcus aureus [7] = experiment: Bacteriostatic activity against Staphylococcus aureus isolate 8235 assessed as log reduction in bacterial count at 32 times MIC after 24 hrs by microdilution method; type: functional
Staphylococcus aureus [8] = experiment: Antimicrobial activity against Staphylococcus aureus 8235 by microdilution method; type: functional
Staphylococcus aureus [9] = experiment: Antimicrobial activity against Staphylococcus aureus isolate 8235 at >200 ug/ml by microdilution method in presence of 50 % human serum; type: functional, organism-based
[10] = Therapeutic index, ratio of IC50 for human CCD-32Sk cells to MIC for Staphylococcus aureus 8235; type: cell-based; conditions: read-out: TI
Streptococcus pyogenes = experiment: Antimicrobial activity against Streptococcus pyogenes by microdilution method; type: functional
Staphylococcus aureus [11] = experiment: Antimicrobial activity against methicillin-susceptible Staphylococcus aureus by microdilution method; type: functional
Staphylococcus aureus [12] = experiment: Antimicrobial activity against mupirocin- and methicillin-resistant Staphylococcus aureus by microdilution method; type: functional
[13] = Cytotoxicity against human CCD-32Sk cells after 48 hrs by MTT assay; type: cell-based
Staphylococcus aureus [14] = experiment: Antimicrobial activity against Staphylococcus aureus 8235 selected after 4 times MIC pre-incubated for 1 hr by microdilution method; type: functional
Staphylococcus aureus [15] = experiment: Antimicrobial activity against methicillin-resistant Staphylococcus aureus by microdilution method; type: functional
Staphylococcus aureus [16] = experiment: Antimicrobial activity against Staphylococcus aureus ATCC 29213 infected BALB/c mouse at 10 % administered topically 4 hrs post infection twice a day for 5 days; type: functional, organism-based
[17] = Homo sapiens, CCD-32Sk, 48 h, read-out: IC50

| Structure (SMILES) | MIC [1] | MIC (Staphylococcus aureus [2]) | MIC (Staphylococcus aureus [3]) | MBEC (Staphylococcus aureus [4]) | MBIC (Staphylococcus aureus [4]) | MBEC [6] | MBIC [6] | FC (Staphylococcus aureus [7]) | MIC (Staphylococcus aureus [8]) | selectivity ratio [10] | MIC50 (Streptococcus pyogenes) | MIC90 (Streptococcus pyogenes) | MIC50 (Staphylococcus aureus [11]) | MIC90 (Staphylococcus aureus [11]) | MIC50 (Staphylococcus aureus [12]) | MIC90 (Staphylococcus aureus [12]) | IC50 [13, 17] | MIC (Staphylococcus aureus [14]) | MIC50 (Staphylococcus aureus [15]) | MIC90 (Staphylococcus aureus [15]) | further results |
| --- | --- | --- | --- | --- | --- | --- | --- | --- | --- | --- | --- | --- | --- | --- | --- | --- | --- | --- | --- | --- | --- |
| CO[C@H]1/C=C/O[C@@]2(C)Oc3c(C)c(O)c4c(O)c(c(/C=N/N5CCN(C)CC5)c(O)c4c3C2=O)NC(=O)/C(C)=C\C=C\[C@H](C)[C@H](O)[C@@H](C)[C@@H](O)[C@@H](C)[C@H](OC(C)=O)[C@@H]1C [RIFAMPIN] | 0.012 µg/mL (≈ 0.0146 µM) | 0.006 µg/mL (≈ 0.00729 µM) | 0.012 µg/mL (≈ 0.0146 µM) | 25 µg/mL | <0.2 µg/mL | 50 µg/mL | <0.2 µg/mL | – | – | – | – | – | – | – | – | – | – | – | – | – | MBEC (Staphylococcus aureus [5]): 6.25 µg/mL |
| C/C(O)=C1\C(=O)[C@H](CC(C)C)N(Cc2ccc(-c3ccccc3)cc2)C1=O | 0.8 µg/mL (≈ 2.2 µM) | 0.8 µg/mL (≈ 2.2 µM) | 0.8 µg/mL (≈ 2.2 µM) | 100 µg/mL | 3.12 µg/mL | 200 µg/mL | 1.6 µg/mL | 2.6 | 25 µg/mL (≈ 68.8 µM) | 21.2 | 0.2 µg/mL (≈ 0.55 µM) | 0.8 µg/mL (≈ 2.2 µM) | 0.8 µg/mL (≈ 2.2 µM) | 1.6 µg/mL (≈ 4.4 µM) | 1.6 µg/mL (≈ 4.4 µM) | 1.6 µg/mL (≈ 4.4 µM) | 529 µg/mL (≈ 1460 µM) | 0.8 µg/mL (≈ 2.2 µM) | 1.6 µg/mL (≈ 4.4 µM) | 1.6 µg/mL (≈ 4.4 µM) | Activity (Staphylococcus aureus [9]): inactive; MIC (Staphylococcus aureus [11]): 0.8 µg/mL (≈ 2.2 µM); MBIC (Staphylococcus aureus [5]): 0.8 µg/mL |
| C=C(NC(=O)[C@@H](NC(=O)[C@H](Cc1cnc[nH]1)NC(=O)[C@@H](NC(=O)[C@H](CO)NC(=O)[C@@H]1CS[C@@H](C)[C@H]2NC(=O)C(=C)NC(=O)[C@H](NC(=O)[C@H](CCCCN)NC(=O)[C@H](CCSC)NC(=O)[C@H](CC(N)=O)NC(=O)[C@@H]3CS[C@@H](C)[C@@H](NC(=O)[C@H](CCCNN)NC(=O)[C@@H]4CS[C@@H](C)[C@@H](NC(=O)[C@@H]5CSC[C@@H](NC(=O)/C(=C\C)NC(=O)[C@@H](N)[C@@H](C)CC)C(=O)N[C@@H]([C@@H](C)CC)C(=O)NC(=C)C(=O)N[C@@H]([C@@H](C)CC)C(=O)N5)C(=O)N5CCC[C@H]5C(=O)NCC(=O)N4)C(=O)NCC(=O)N[C@@H](C)C(=O)N[C@@H]([C@@H](C)CC)C(=O)N[C@@H](CCSC)C(=O)NCC(=O)N3)[C@H](C)SC[C@H](NC2=O)C(=O)N[C@H](Cc2cnc[nH]2)C(=O)N1)[C@@H](C)CC)C(C)C)C(=O)N[C@@H](CCCCN)C(=O)O [NISIN] | – | – | – | – | – | – | – | 2.6 | inactive | – | – | – | – | – | – | – | – | – | – | – | IC50 ([13]; ccd-32sk): Not Active |
| C/C(O)=C1\C(=O)[C@H](CC(C)C)N(CC2=CCC3CC2C3(C)C)C1=O (some centres not stated) | 3.12 µg/mL (≈ 9.41 µM) | 1.6 µg/mL (≈ 4.83 µM) | 1.6 µg/mL (≈ 4.83 µM) | >=400 ug ml-1 | 6.2 µg/mL | >400 µg/mL | 1.6 µg/mL | 2.6 | 25 µg/mL (≈ 75.4 µM) | 15.1 | 0.4 µg/mL (≈ 1.21 µM) | 1.6 µg/mL (≈ 4.83 µM) | 1.6 µg/mL (≈ 4.83 µM) | 3.12 µg/mL (≈ 9.41 µM) | 3.12 µg/mL (≈ 9.41 µM) | 3.12 µg/mL (≈ 9.41 µM) | 377 µg/mL (≈ 1140 µM) | 1.6 µg/mL (≈ 4.83 µM) | 3.12 µg/mL (≈ 9.41 µM) | 3.12 µg/mL (≈ 9.41 µM) | Activity (Staphylococcus aureus [9]): inactive; Activity (Staphylococcus aureus [16]): Active; MIC (Staphylococcus aureus [11]): 1.6 µg/mL (≈ 4.83 µM) |
| CCCCCCCCCCN1C(=O)/C(=C(/C)O)C(=O)[C@@H]1CC(C)C | 0.4 µg/mL (≈ 1.19 µM) | 0.8 µg/mL (≈ 2.37 µM) | 0.8 µg/mL (≈ 2.37 µM) | 50 µg/mL | 3.12 µg/mL | 50 µg/mL | 0.4 µg/mL | 2.6 | 25 µg/mL (≈ 74.1 µM) | 12.3 | 0.2 µg/mL (≈ 0.593 µM) | 0.8 µg/mL (≈ 2.37 µM) | 0.4 µg/mL (≈ 1.19 µM) | 0.8 µg/mL (≈ 2.37 µM) | 0.8 µg/mL (≈ 2.37 µM) | 1.6 µg/mL (≈ 4.74 µM) | 308 µg/mL (≈ 914 µM) | 0.8 µg/mL (≈ 2.37 µM) | 0.8 µg/mL (≈ 2.37 µM) | 1.6 µg/mL (≈ 4.74 µM) | Activity (Staphylococcus aureus [9]): inactive; Activity (Staphylococcus aureus [16]): Active; MIC (Staphylococcus aureus [11]): 0.4 µg/mL (≈ 1.19 µM); MBEC (Staphylococcus aureus [5]): 6.25 µg/mL; MBIC (Staphylococcus aureus [5]): 0.8 µg/mL |
| CCCCCCCCCCN1C(=O)/C(=C(/C)O)C(=O)[C@@H]1C(C)C | 0.8 µg/mL (≈ 2.47 µM) | 0.8 µg/mL (≈ 2.47 µM) | 0.8 µg/mL (≈ 2.47 µM) | 25 µg/mL | 1.6 µg/mL | 25 µg/mL | 0.8 µg/mL | 2.6 | 25 µg/mL (≈ 77.3 µM) | 14.4 | 0.2 µg/mL (≈ 0.618 µM) | 0.8 µg/mL (≈ 2.47 µM) | 0.8 µg/mL (≈ 2.47 µM) | 0.8 µg/mL (≈ 2.47 µM) | 1.6 µg/mL (≈ 4.95 µM) | 3.12 µg/mL (≈ 9.65 µM) | 356 µg/mL (≈ 1100 µM) | 0.8 µg/mL (≈ 2.47 µM) | 0.8 µg/mL (≈ 2.47 µM) | 1.6 µg/mL (≈ 4.95 µM) | Activity (Staphylococcus aureus [9]): inactive; MBIC (Staphylococcus aureus [5]): 0.8 µg/mL |
| CC1(C)S[C@@H]2[C@H](NC(=O)[C@H](N)c3ccc(O)cc3)C(=O)N2[C@H]1C(=O)O [AMOXICILLIN] | – | – | – | – | – | – | – | 2.6 | inactive | – | – | – | – | – | – | – | – | 12.5 µg/mL (≈ 34.2 µM) | – | – | IC50 ([13]; ccd-32sk): Not Active |
| C/C(O)=C1\C(=O)[C@H](CC(C)C)N(CCC(C)C/C=C/C(C)C)C1=O (some centres not stated) | 0.8 µg/mL (≈ 2.38 µM) | 0.8 µg/mL (≈ 2.38 µM) | 0.8 µg/mL (≈ 2.38 µM) | 50 µg/mL | 3.12 µg/mL | 200 µg/mL | 0.4 µg/mL | 2.6 | 25 µg/mL (≈ 74.5 µM) | 10.2 | 0.4 µg/mL (≈ 1.19 µM) | 0.8 µg/mL (≈ 2.38 µM) | 0.8 µg/mL (≈ 2.38 µM) | 1.6 µg/mL (≈ 4.77 µM) | 0.8 µg/mL (≈ 2.38 µM) | 1.6 µg/mL (≈ 4.77 µM) | 256 µg/mL (≈ 763 µM) | 0.8 µg/mL (≈ 2.38 µM) | 0.8 µg/mL (≈ 2.38 µM) | 1.6 µg/mL (≈ 4.77 µM) | Activity (Staphylococcus aureus [9]): inactive; MIC (Staphylococcus aureus [12]): 0.8 µg/mL (≈ 2.38 µM); MBIC (Staphylococcus aureus [5]): 0.4 µg/mL |
| CN[C@H](CC(C)C)C(=O)N[C@H]1C(=O)N[C@@H](CC(N)=O)C(=O)N[C@H]2C(=O)N[C@H]3C(=O)N[C@H](C(=O)N[C@H](C(=O)O)c4cc(O)cc(O)c4-c4cc3ccc4O)[C@H](O)c3ccc(c(Cl)c3)Oc3cc2cc(c3O[C@@H]2O[C@H](CO)[C@@H](O)[C@H](O)[C@H]2O[C@H]2C[C@](C)(N)[C@H](O)[C@H](C)O2)Oc2ccc(cc2Cl)[C@H]1O [VANCOMYCIN] | 1.6 µg/mL (≈ 1.1 µM) | 0.8 µg/mL (≈ 0.552 µM) | 1.6 µg/mL (≈ 1.1 µM) | >400 µg/mL | 3.12 µg/mL | >400 µg/mL | 12.5 µg/mL | – | 0.8 µg/mL (≈ 0.552 µM) | > 25000 | 0.024 µg/mL (≈ 0.0166 µM) | 0.024 µg/mL (≈ 0.0166 µM) | 0.12 µg/mL (≈ 0.0828 µM) | 0.2 µg/mL (≈ 0.138 µM) | > 200 µg/mL | > 200 µg/mL | > 20000 µg/mL | – | 0.2 µg/mL (≈ 0.138 µM) | 0.4 µg/mL (≈ 0.276 µM) | MIC (Staphylococcus aureus [11]): 0.05 µg/mL (≈ 0.0345 µM); MBEC (Staphylococcus aureus [5]): >400 µg/mL; MBIC (Staphylococcus aureus [5]): 1.6 µg/mL |
